Data taken from patent US8008088B2, “SMMR (small molecule metabolite reporters) for use as in vivo glucose biosensors” (Masimo Laboratories, Inc., priority 2003, dated 2011).
Like-named read-outs stand apart in the source and are kept apart here.

Assays:
PHK cells = assay: In-vitro detection in PHK cells loaded with reporter, two-photon fluorescent imaging; assay type: cell-based; conditions: reporter 50 micromolar; glucose increased to 300 mg/dl; EM 440 nm, excitation (2P) 705 nm
Method: PHK cells were loaded with AF-327d reporter, at 50 micromolar concentration, in buffer. Fluorescence was measured using a two-photon fluorescent imaging system at approximately EM 440 nm, and excitation at (2P) 705 nm. Pictures taken 10 minutes apart show a slight change in fluorescence intensity upon increasing the glucose concentration to 300 mg/dl in the cell buffer medium. This is seen clearly, as a 20% decrease in time course of fluorescence.

[1] = Fluorescence and absorption response of boronic acid reporters to glucose in buffer solution (in vitro); conditions: for rise in fluorescence intensity on addition of glucose: glucose changed from zero to 300 mg/dL
[2] = Glucose response rate in stirred cuvette, pH 8 phosphate buffer; conditions: 100 μL of 300 mg/dL glucose added; monitored every 15 seconds; ex 340 nm, em 440 nm
Method: Arg-327 unprotected batches were prepared. One batch was supplied as a yellow powder and the other as a concentrated solution in deuterated methanol. A small sample of these materials was taken and dissolved in 3 ml of pH 8 phosphate buffer. The fluorescence of these materials was excited at 340 nm and the emission monitored at 440 nm. The fluorescence was monitored every 15 seconds in a stirred cuvette. After about 3 minutes 100 μL of 300 mg/dL glucose in pH 8 buffer was added. […] Similar results were obtained for both samples.

[3] = pH dependency of esculetin spectra (pKa determination); assay type: physicochemical
Description: The intensity of the fluorescence varies with pH but not the emission wavelength. The absorption spectrum did change with pH, implying the molecule could be used ratiometrically to measure pH using one monitoring wavelength and two excitation wavelengths. The relevant spectra are shown here together with a plot of absorption ratio as a function of pH (FIG. 45).

[4] = hydroxyl group at position 3; cited from earlier work
[5] = Absorption and emission spectra of fluorescein and BeXan (Table 4); assay type: physicochemical
Description: The configuration of the dye is strongly influenced by the nature of the heteroatom substitution. The structure of the dye responsible for the absorption may be estimated by consideration of the photophysical properties of related compounds and calculations on them. For example comparison of fluorescein and BeXan type dyes are shown in FIGS. 21a and 21b, with structures shown in Schemes 11 and 12, respectively.

[6] = protonated, first (high energy) band
[7] = protonated, second (low energy) band

**Q.** What does the source list for `O=C(Nc1ccc2c(C(F)(F)F)cc(=O)oc2c1)c1ccc(B(O)O)cc1` [AF-327d]?
**A.** decrease in time course of fluorescence (PHK cells): 20%; fluorescence emission (em) [1]: 440 nm; fluorescence excitation (ex) [1]: 340 nm; long wavelength absorption maximum [1]: 333 nm; response to glucose in vitro (in words) [1]: stronger response to glucose than other published compounds; change of absorption spectrum at the excitation wavelength ([1]; as a function of glucose concentration): less than 10%; rise in fluorescence intensity on addition of glucose [1]: 60%; Emission Wavelength ([1]; with and without added glucose at pH=7): 440 nm; glucose response rate (fluorescence versus time) [2]: increased immediately

**Q.** Which “response to glucose in vitro (in words)” value [1] does the source give for `O=C(Nc1ccc([N+](=O)[O-])cc1)c1ccc(B(O)O)cc1` [AF-339] here?
**A.** weaker than AF-327

**Q.** With `O=C(/C=C/c1ccc(B(O)O)cc1)c1cc2ccccc2oc1=O` [AF-343] as the compound, how does the “response to glucose in vitro (in words)” value [1] read?
**A.** No fluorescence or glucose effect

**Q.** What does the source list for `O=C(Nc1ccc2oc(=O)c3ccccc3c2c1)c1ccc(B(O)O)cc1` [AF-345]?
**A.** fluorescence emission (em) [1]: 435 nm; fluorescence excitation (ex) [1]: 330 nm; rise in fluorescence intensity on addition of glucose [1]: 30%

**Q.** For `O=c1ccc2cc(O)c(O)cc2o1` [esculetin, 6,7 dihydroxycoumarin], which pKa [3] is on record?
**A.** 7.5

**Q.** Which pKa [4] does the source give for fluorescein here?
**A.** 6.4

**Q.** And the “Difference in energy of protonated absorption bands” value [5]?
**A.** 3.6 kcal/mol

**Q.** What about the “Stokes shift for deprotonated bands” value [5] of the same compound?
**A.** 4.1 kcal/mol

**Q.** What about the “Stokes shift for protonated bands” value [5] of the same compound?
**A.** 3.8 kcal/mol

**Q.** What about the “Band position relative to the high-energy protonated absorption band, Absorption” value ([5]; Deprotonated band) of the same compound?
**A.** 5.7 kcal/mol

**Q.** What about the “Band position relative to the high-energy protonated absorption band, Emission” value ([5]; Deprotonated band) of the same compound?
**A.** 9.8 kcal/mol

**Q.** And the “Band position relative to the high-energy protonated absorption band, Absorption” value ([5]; High energy protonated band)?
**A.** 0 kcal/mol

**Q.** And the “Band position relative to the high-energy protonated absorption band, Emission” value ([5]; High energy protonated band)?
**A.** 7.4 kcal/mol

**Q.** And the “Band position relative to the high-energy protonated absorption band, Absorption” value ([5]; Low energy protonated band)?
**A.** 3.6 kcal/mol

**Q.** What about the “Band position relative to the high-energy protonated absorption band, Emission” value ([5]; Low energy protonated band) of the same compound?
**A.** 9.9 kcal/mol

**Q.** And the “Absorption Energy” value ([5]; deprotonated)?
**A.** 57.1 kcal/mol

**Q.** What about the “Absorption Wavelength” value ([5]; deprotonated) of the same compound?
**A.** 501 nm

**Q.** And the “Emission Energy” value ([5]; deprotonated)?
**A.** 53 kcal/mol

**Q.** What about the “Emission Wavelength” value ([5]; deprotonated) of the same compound?
**A.** 540 nm

**Q.** What about the “Absorption Energy” value [5, 6] of the same compound?
**A.** 62.8 kcal/mol

**Q.** What about the “Absorption Wavelength” value [5, 6] of the same compound?
**A.** 455 nm

**Q.** What about the “Emission Energy” value [5, 6] of the same compound?
**A.** 55.4 kcal/mol

**Q.** And the “Emission Wavelength” value [5, 6]?
**A.** 516 nm

**Q.** And the “Absorption Energy” value [5, 7]?
**A.** 59.2 kcal/mol

**Q.** What about the “Absorption Wavelength” value [5, 7] of the same compound?
**A.** 483 nm

**Q.** And the “Emission Energy” value [5, 7]?
**A.** 52.9 kcal/mol

**Q.** And the “Emission Wavelength” value [5, 7]?
**A.** 541 nm
